Measured values reported in US20220259202A1, “1-(4-(AMINOMETHYL)BENZYL)-2-BUTYL-2H-PYRAZOLO[3,4-C]QUINOLIN-4-AMINE DERIVATIVES AND RELATED COMPOUNDS AS TOLL-LIKE RECEPTOR (TLR) 7/8 AGONISTS, AS WELL AS ANTIBODY DRUG CONJUGATES THEREOF FOR USE IN CANCER THERAPY AND DIAGNOSIS” (SUTRO BIOPHARMA, INC., priority 2019, published 2022).

Columns and labels:
Assay in all cases: HEK293 SEAP reporter assay, other TLRs (Biological Example 3)
Assay type in all cases: cell-based
Details in all cases: 16 hrs, up to 1 μM
mouse TLR8 = molecular target: T1, mouse TLR8 (Mus musculus, UniProt P58682)
T1 construct: host or cells: HEK293
T1 sequence (P58682 24-1032): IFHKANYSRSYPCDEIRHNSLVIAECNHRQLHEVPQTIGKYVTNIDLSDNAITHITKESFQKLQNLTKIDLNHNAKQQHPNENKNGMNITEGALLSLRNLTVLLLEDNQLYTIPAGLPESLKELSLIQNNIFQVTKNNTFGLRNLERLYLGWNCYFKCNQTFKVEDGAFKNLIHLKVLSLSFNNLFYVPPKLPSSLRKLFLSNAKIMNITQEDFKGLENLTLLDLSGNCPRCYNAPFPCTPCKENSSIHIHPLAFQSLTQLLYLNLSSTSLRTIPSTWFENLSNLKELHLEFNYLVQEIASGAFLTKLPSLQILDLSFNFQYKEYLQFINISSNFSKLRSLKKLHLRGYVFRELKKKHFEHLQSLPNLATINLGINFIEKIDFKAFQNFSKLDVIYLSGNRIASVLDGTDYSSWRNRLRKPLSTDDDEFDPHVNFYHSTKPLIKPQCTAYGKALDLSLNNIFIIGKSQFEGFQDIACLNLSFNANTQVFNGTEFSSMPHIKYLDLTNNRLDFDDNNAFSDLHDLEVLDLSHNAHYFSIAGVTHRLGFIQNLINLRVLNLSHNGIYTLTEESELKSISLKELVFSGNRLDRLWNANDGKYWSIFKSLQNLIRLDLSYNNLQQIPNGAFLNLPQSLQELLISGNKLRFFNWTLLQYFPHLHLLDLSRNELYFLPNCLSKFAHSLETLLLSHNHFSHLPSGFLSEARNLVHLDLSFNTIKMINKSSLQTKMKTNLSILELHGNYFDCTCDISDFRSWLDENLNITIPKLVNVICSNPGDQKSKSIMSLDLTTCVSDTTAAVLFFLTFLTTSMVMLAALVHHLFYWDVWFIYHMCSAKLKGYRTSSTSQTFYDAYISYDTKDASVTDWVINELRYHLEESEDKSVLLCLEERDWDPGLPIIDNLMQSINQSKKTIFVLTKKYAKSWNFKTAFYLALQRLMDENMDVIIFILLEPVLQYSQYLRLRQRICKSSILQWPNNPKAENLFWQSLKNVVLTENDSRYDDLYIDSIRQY
Description: (§1) In this example, the activity of the Compound 1 to stimulate different human and mouse TLR pathways was investigated on HEK293 cells transfected with inducible SEAP (secreted embryonic alkaline phosphatase) reporter genes and also expressing different human TLRs (TLR2, TLR3, TLR4, TLR5, TLR7, TLR8, TLRS) or mouse TLRs (TLR2, TLR3, TLR4, TLR5, TLR7, TLR8, TLR13). Compound A
(§2) HEK293 reporter cell lines were purchased from Invivogen and cell lines were maintained in manufacture recommended culture medium with required supplemental antibiotics. On the day of assay, the cells were harvested with Accutase and counted by the Vi-CELL Cell Viability Analyzers. Cells were re-suspended in HEK blue detection medium and a total of 10000 cells were seeded in each well of a 384-well flat bottom plate. […] Assay plates were cultured at 37° C. in a CO2 incubator for 16 hrs. HEK-Blue™ Detection medium changes to a purple/blue color in the presence of secreted SEAP, which can be detected by spectrophotometry at 620-655 nm. Data was fitted with non-linear regression analysis, using a log(inhibitor) vs. response-variable slope, 3-parameter fit with GraphPad Prism.

mouse TLR5 = molecular target: T2, mouse TLR5 (Mus musculus, UniProt Q9JLF7)
T2 construct: host or cells: HEK293
T2 sequence (Q9JLF7 27-859): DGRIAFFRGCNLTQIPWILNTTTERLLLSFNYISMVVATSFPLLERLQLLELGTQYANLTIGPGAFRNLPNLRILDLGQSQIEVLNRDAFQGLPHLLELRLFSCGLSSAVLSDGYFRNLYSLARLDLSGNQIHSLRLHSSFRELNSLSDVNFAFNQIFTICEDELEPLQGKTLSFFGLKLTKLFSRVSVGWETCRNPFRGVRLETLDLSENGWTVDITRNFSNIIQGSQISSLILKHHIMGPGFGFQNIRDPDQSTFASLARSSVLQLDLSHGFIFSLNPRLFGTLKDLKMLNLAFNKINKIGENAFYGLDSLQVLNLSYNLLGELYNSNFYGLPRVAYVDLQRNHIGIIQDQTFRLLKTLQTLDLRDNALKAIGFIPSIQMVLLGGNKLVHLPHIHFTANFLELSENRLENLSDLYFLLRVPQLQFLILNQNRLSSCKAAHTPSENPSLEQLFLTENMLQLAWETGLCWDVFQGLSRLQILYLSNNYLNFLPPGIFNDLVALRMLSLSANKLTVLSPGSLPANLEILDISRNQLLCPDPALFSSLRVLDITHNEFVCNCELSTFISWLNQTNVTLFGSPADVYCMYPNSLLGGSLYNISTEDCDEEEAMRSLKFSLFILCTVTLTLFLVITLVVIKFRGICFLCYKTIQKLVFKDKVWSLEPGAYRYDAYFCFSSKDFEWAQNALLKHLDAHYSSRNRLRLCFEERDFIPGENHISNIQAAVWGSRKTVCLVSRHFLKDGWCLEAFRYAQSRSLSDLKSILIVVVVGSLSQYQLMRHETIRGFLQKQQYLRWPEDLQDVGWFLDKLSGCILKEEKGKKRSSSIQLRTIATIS
Description: as §1, §2

human TLR9 = molecular target: T3, human TLR9 (Homo sapiens, UniProt Q9NR96)
T3 construct: host or cells: HEK293
T3 sequence (Q9NR96 26-1032): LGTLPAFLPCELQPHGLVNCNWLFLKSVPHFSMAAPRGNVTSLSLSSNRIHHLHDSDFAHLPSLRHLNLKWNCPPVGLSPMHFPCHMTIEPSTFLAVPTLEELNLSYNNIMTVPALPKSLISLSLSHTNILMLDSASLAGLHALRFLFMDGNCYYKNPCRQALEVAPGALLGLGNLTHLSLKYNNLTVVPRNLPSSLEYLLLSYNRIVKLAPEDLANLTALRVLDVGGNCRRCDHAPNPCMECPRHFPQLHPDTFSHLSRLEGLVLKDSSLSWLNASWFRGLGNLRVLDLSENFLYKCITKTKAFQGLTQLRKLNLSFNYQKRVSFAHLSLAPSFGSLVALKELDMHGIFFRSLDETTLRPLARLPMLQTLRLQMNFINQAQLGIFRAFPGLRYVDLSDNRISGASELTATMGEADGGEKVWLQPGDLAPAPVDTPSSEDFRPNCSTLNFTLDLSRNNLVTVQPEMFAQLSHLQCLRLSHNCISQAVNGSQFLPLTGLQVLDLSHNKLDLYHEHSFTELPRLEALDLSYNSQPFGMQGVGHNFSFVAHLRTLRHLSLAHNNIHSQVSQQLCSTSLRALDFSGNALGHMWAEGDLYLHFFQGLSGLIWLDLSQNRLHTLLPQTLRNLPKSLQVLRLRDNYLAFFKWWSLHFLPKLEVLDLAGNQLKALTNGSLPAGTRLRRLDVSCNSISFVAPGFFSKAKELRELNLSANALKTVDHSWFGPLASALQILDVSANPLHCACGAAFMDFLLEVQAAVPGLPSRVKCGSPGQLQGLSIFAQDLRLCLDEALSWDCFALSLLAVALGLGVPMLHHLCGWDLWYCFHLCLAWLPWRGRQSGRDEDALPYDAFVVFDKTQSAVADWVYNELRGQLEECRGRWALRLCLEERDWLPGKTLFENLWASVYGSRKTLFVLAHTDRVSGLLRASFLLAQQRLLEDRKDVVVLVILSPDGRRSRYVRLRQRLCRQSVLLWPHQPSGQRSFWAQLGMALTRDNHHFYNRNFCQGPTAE
Description: as §1, §2

Measured: EC50

CCCCc1nc2c(N)nc3ccccc3c2n1Cc1ccc(CN)cc1 [Compound A, reference compound]
> 1000 nM: all assays above

CCCCn1nc2c(N)nc3ccccc3c2c1Cc1ccc(CN)cc1 [Compound 1, 1-(4-(aminomethyl)benzyl)-2-butyl-2H-pyrazolo[3,4-c]quinolin-4-amine]
> 1000 nM: all assays above
